Assays:
Male C57B16 mice [1] = experiment: Tissue ICP-AES biodistribution of Mn; assay type: in vivo
Experimental: Tissue ICP-AES: Biodistribution of 5 was measured in tissues 15 and 90 min after injection of (1) 0.07 mmol/kg 5 plus 2.2 mmol/kg D-glucose, (2) 0.07 mmol/kg 5 plus saline, and (3) 0.035 mmol/kg MnCl plus 2.2 mmol/kg D-glucose into male C57B16 mice. The tissue weights were recorded and digested in aqua regia for 24 hours, the digested tissue was heated to 120° C. until evaporated and re-suspended in 0.5 M HCl. For ICP-AES, Mn, Fe, and Zn concentrations were obtained by comparing to a known metal standard.

[2] = Relaxometry (T1 and T2 at 1.5 T); assay type: physicochemical; details: 37° C.
Experimental: Relaxometry: Varying concentrations of 5 (0-1 mM) were incubated with 2 mM ZnCl2, and 0.6 mM human serum albumin (HSA) at 37° C. T1 and T2 measurements were obtained at 1.5 T using a Bruker relaxometer. T1 was obtained by an inversion recovery sequence (IR, first pulse=10 ms, TR=10 s, TI=10-2500 ms), and T2 by a Carr-Prucell-Meiboom-Gill (CPMG, TE/TR=5/10000 ms, NE=700).

Male C57B16 mice [3] = experiment: In vivo T1-weighted MRI of glucose-stimulated zinc secretion
Experimental: In Vivo MRI: Male C57B16 mice were imaged at 4.7 T and 9.4 T using Varian/Agilent scanners. Mice were anesthetized with 2-5% isofluorane/oxygen mixture and their body temperature was maintained at 37° C. using heated airflow. Two ge3d T1-weighted scans were obtained as a baseline (TE/TR=1.69/3.35 ms, Average=4, θ=20°). Mice then received 0.07 mmol/kg 5 i.v. plus 2.2 mmol/kg D-Glucose i.p. and sequential 3d T1-weighted scans were obtained for 90 minutes until clearance of the agent was evident. Images were analyzed using ImageJ, organs of interest were identified, and ROIs were measured and normalized to muscle ROIs within the same slice and time point. The change in MR signal intensity is reported as a percentage compared to pre-injection scans.

[4] = Clearance route and integrity by LC-MS of urine and bile; assay type: in vivo
[5] = 0.035 mmol/kg i.v. plus 2.2 mmol/kg D-glucose i.p.

Row | Molecule | Mn accumulation in the heart (Male C57B16 mice [1]; [5]) | excretion route (tissue biodistribution of Mn) (Male C57B16 mice [1]; [5]) | longitudinal relaxivity r1 ([2]; "off" configuration (no Zn(II)/HSA)) [mM⁻¹ s⁻¹] | longitudinal relaxivity r1 ([2]; "on" configuration bound to Zn^2+ and HSA (2 mM ZnCl2, 0.6 mM HSA)) [mM⁻¹ s⁻¹] | MRI signal enhancement in organs (Male C57B16 mice [3]; 0.07 mmol/kg i.v. plus D-glucose 2.2 mmol/kg i.p., 4 minutes post injection, 9.4 T) | MRI signal enhancement in organs (Male C57B16 mice [3]; control, D-glucose not co-injected) | Mn accumulation in the heart (Male C57B16 mice [1]; 0.07 mmol/kg i.v. plus 2.2 mmol/kg D-glucose i.p.) | Mn content in tissues (biodistribution) (Male C57B16 mice [1]; 15 minutes post-injection, 0.07 mmol/kg i.v. plus 2.2 mmol/kg D-glucose i.p.) | Mn content in tissues (biodistribution) (Male C57B16 mice [1]; 90 minutes post-injection, 0.07 mmol/kg i.v. plus 2.2 mmol/kg D-glucose i.p.) | integrity during hepatobiliary clearance ([4]; LC-MS of bile) | integrity after renal filtration ([4]; LC-MS of urine)
1 | [Cl][Mn][Cl] [MnCl2, reference compound] | Accumulation in the heart | excreted renally and more overwhelmingly via the hepatobiliary system |  |  |  |  |  |  |  |  | 
2 | Mn—N-(6-methyl)-(2-(bis(pyridin-2-ylmethyl)amino)ethyl)-nicotinamido-N,N′ N′-trans-1,2-cyclohexylenediamine-triacetate [Compound 5] |  |  | 3.5 | 14.1 | Enhancement in the pancreas, prostate, kidneys, and liver | marginal enhancement in the prostate and pancreas | no accumulation in the heart | found primarily in the kidneys, liver, pancreas, and prostate | greatly diminished in kidney and liver tissues but accumulated in the spleen and in the prostate | degraded during hepatobiliary clearance | excreted as an intact complex after renal filtration

From patent publication US11267832B2, “Mn(II)-based sensors to detect zinc in vivo with MRI” (The Board of Regents of the University of Texas System, priority 2018, dated 2022)
